PMC8280128, “Antioxidant and food additive BHA prevents TNF cytotoxicity by acting as a direct RIPK1 inhibitor” (Cell Death & Disease, 2021)

Biological target: T1, RIPK1 (Homo sapiens, UniProt Q13546)
T1 construct: AA 1–479, GST fusion
T1 sequence (Q13546 1-479): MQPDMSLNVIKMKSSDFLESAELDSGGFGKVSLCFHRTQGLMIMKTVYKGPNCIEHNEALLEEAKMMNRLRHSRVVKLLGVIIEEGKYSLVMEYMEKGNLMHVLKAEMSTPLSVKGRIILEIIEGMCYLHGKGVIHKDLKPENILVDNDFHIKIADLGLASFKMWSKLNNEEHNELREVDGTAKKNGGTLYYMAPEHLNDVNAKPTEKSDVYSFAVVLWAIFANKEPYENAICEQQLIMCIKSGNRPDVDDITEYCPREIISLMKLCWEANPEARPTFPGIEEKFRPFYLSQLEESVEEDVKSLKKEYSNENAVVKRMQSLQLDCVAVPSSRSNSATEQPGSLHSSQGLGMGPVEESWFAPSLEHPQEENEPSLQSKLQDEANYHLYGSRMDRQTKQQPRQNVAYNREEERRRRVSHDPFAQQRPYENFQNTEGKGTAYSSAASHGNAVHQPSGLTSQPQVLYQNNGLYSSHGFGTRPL
Experiment: ADP-Glo in vitro kinase assay with recombinant RIPK1 ([…] reduction at […])
Type: biochemical

inhibition at 100 µM: ~60%
Structure (SMILES): CC(C)(C)c1cc(O)ccc1O [TBHQ]
